The text below walks through data of US10030012B2, “Piperidin-1-yl and azepin-1-yl carboxylates as muscarinic M4 receptor agonists” (Heptares Therapeutics Limited, priority 2013, dated 2018).

What is called EC50 is the midpoint of the concentration-response curve.

Assay [1] concerns the target human M2 receptor (Homo sapiens (Human), UniProt P08172). As to the kind of experiment: In vitro M2 functional assay (intracellular calcium, FLiPR Tetra). Format: cell-based. As to conditions: CHOK1 cells stably expressing human M2 receptor and Gα16; calcium flux; No Response = no significant response of calcium flux indicative of agonism. Summed up:
(§1)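 CHOK1 cells stably expressing human M4 or M2 with Gα16, loaded with Calcium 5 dye 45 min at 37° C in HBSS/HEPES/BSA/probenecid pH 7.4. Fluorescence read 5 min after compound; EC50 from ten-point half-log curves, duplicate wells, four-parameter fit; efficacy relative to EC100 acetylcholine.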

The target in assay [2] is human M4 receptor (Homo sapiens (Human), UniProt P08173). As to the kind of experiment: In vitro M4 functional assay (intracellular calcium, FLiPR Tetra). Particulars: for EC50: CHOK1 cells stably expressing human M4 receptor and Gα16, calcium flux; for Emax: relative efficacy to an EC100 concentration of acetylcholine, read-out: M4 % RE. The assay is classed as cell-based. The method, boiled down:
as §1

Sequence of human M2 receptor (P08172 whole entry): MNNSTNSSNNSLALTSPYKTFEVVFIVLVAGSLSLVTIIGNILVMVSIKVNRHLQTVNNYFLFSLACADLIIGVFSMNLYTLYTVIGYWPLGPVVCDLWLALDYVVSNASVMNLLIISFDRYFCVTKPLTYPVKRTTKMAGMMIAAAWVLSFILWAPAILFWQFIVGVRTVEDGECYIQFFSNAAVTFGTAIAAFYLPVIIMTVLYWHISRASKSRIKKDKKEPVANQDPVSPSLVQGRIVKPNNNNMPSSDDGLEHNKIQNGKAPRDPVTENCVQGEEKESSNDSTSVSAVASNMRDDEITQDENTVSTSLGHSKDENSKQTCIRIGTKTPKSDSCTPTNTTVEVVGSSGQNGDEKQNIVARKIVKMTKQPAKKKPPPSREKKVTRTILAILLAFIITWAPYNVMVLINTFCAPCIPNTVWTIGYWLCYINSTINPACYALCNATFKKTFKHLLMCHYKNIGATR
Sequence of human M4 receptor (P08173 whole entry): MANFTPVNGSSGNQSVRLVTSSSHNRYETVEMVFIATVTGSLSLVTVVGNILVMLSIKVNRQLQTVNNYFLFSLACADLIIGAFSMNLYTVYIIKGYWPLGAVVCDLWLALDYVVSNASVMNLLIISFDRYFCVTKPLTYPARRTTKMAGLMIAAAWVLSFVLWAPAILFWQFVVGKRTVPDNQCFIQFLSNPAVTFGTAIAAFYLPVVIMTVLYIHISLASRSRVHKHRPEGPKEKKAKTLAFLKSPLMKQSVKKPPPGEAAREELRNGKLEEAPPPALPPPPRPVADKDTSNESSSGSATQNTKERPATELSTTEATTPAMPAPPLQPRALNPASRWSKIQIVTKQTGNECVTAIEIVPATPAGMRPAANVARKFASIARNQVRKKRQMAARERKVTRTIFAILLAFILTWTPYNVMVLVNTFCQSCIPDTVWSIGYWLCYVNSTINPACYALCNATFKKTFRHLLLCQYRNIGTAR

For the compound `CCOC(=O)N1CCC(CN2CC(n3cccn3)C2)CC1` [Example 29, Ethyl 4-{[3-(1H-pyrazol-1-yl)azetidin-1-yl]methyl}piperidine-1-carboxylate], the “M2 EC50” value in assay [1] is reported as “No Response”. Also, in assay [2], the EC50 was 1830 nM and the Emax amounted to 29%.

Turning to `CCOC(=O)N1CCC[C@H](N2CCC(n3cccn3)CC2)CC1` [Example 81, Ethyl (4S)-4-[4-(1H-pyrazol-1-yl)piperidin-1-yl]azepane-1-carboxylate], in assay [1], the “M2 EC50” value is reported as “No response”. Moreover, in assay [2], the EC50 was found to be 85 nM and the Emax stood at 83%.

Turning to `CCOC(=O)N1CCCC(N2CCC(n3cc(-c4ccc(F)cc4)cn3)CC2)CC1` (stereo not drawn) [Example 18, Ethyl 4-{4-[4-(4-fluorophenyl)-1H-pyrazol-1-yl]piperidin-1-yl}azepane-1-carboxylate], the “M2 EC50” value in assay [1] is “No Response”. Also, in assay [2], the concentration giving a half-maximal response (EC50) is 410 nM and the Emax is 45%.

As for `COC(=O)N1CCC(CN2CCC(n3nc(C)cc3C)C2)CC1` (stereo not drawn) [Example 78, Methyl 4-{[3-(3,5-dimethyl-1H-pyrazol-1-yl)pyrrolidin-1-yl]methyl}piperidine-1-carboxylate], the “M2 EC50” value in assay [1] is “No Response”. Also, in assay [2], the EC50 came to 2680 nM and the Emax was 36%.

As to `CCOC(=O)N1CCCC(N2CCC(c3ccncc3OC)CC2)CC1` (stereo not drawn) [Example 44, Ethyl 4-[4-(3-methoxypyridin-4-yl)piperidin-1-yl]azepane-1-carboxylate], the “M2 EC50” value in assay [1] is listed as “No Response”. In assay [2], the EC50 turned out to be 370 nM and the Emax is 52%.

As to `CCOC(=O)N1CCCC(N2CCC(c3nccn3C)CC2)CC1` (stereo not drawn) [Example 9, Ethyl 4-[4-(1-methyl-1H-imidazol-2-yl)piperidin-1-yl]azepane-1-carboxylate], in assay [1], the “M2 EC50” value is reported as “No Response”. Moreover, in assay [2], the EC50 turned out to be 1050 nM and the Emax is 62%.

`CCOC(=O)N1CCCC(N2CCC(n3cccn3)CC2)CC1` (stereo not drawn) [Example 4, Ethyl 4-[4-(1H-pyrazol-1-yl)piperidin-1yl]azepane-1-carboxylate]: the “M2 EC50” value in assay [1] is “No Response”. Also, in assay [2], the EC50 worked out at 140 nM and the Emax came out at 74%.

As for `CCOC(=O)N1CCCC(N2CCC(c3nc(C)cnc3C)CC2)CC1` (stereo not drawn) [Example 59, Ethyl 4-[4-(3,6-dimethylpyrazin-2-yl)piperidin-1-yl]azepane-1-carboxylate], the “M2 EC50” value in assay [1] is listed as “No Response”. Besides, in assay [2], the EC50 was 530 nM and the Emax amounted to 30%.

On to `CCCn1ccnc1C1CCN(C2CCCN(C(=O)OCC)CC2)CC1` (stereo not drawn) [Example 11, Ethyl 4-[4-(1-propyl-1H-imidazol-2-yl)piperidin-1-yl]azepane-1-carboxylate], for which, in assay [1], the “M2 EC50” value is “No Response”. Moreover, in assay [2], the concentration for a half-maximal effect (EC50) worked out at 960 nM and the Emax turned out to be 41%.

`CCOC(=O)N1CCC[C@@H](N2CCC(c3cccnc3OC)CC2)CC1` [Example 86, Ethyl (4R)-4-[4-(2-methoxypyridin-3-yl)piperidin-1-yl]azepane-1-carboxylate]: the “M2 EC50” value in assay [1] was “No response”. In assay [2], the EC50 worked out at 310 nM and the Emax was 67%.

`CCOC(=O)N1CCC(N2CCC(c3nccs3)CC2)CC1` [Example 68, Ethyl 4-[4-(1,3-thiazol-2-yl)piperidin-1-yl]piperidine-1-carboxylate]: the “M2 EC50” value in assay [1] is on record as “No Response”. Also, in assay [2], the EC50 came out at 540 nM and the Emax amounted to 45%.
